The supplement of paper PMC10627819
Converted amounts (≈) assume the structure as drawn.

Experiments:
B. subtilis 168 [1] = assay: fitness (endpoint OD595 vs no drug) (fraction); higher = more growth
In short: (§1)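 In 384-well plates at 37 °C, cultures began at OD595 0.01 in 30 µl, with 55 µl used for S. pneumoniae. OD595 readings every 30 min for 14 h were corrected by the first reading. Fitness divides the stationary-phase transition optical density by the robust mean of no-drug control wells. The result is capped at 1.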

S. aureus DSM 20231 [2] = assay: as above
In short: as §1

S. aureus Newman [3] = assay: as above
In short: as §1

S. pneumoniae D39V [4] = assay: as above
In short: as §1

B. subtilis 168 [5] = assay: Bliss interaction score (quartile over a dose matrix) (fitness difference); higher = more antagonism (negative = synergy)
In short: (§2)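 OD595 was read at entry into stationary phase and expressed relative to the robust mean of the no-drug wells on the same plate, capped at 1. The resulting ratio is the fitness value. The Bliss score, observed fitness minus product-based expected fitness with single-drug fitness inferred from combinations, is summarised by quartiles over technical, biological and donor/recipient replicates.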

S. aureus DSM 20231 [6] = assay: as above
In short: as §2

S. aureus Newman [7] = assay: as above
In short: as §2

S. pneumoniae D39V [8] = assay: as above
In short: as §2

B. subtilis 168 [9] = test system: B. subtilis 168
S. aureus DSM 20231 [10] = test system: S. aureus DSM 20231
S. aureus Newman [11] = test system: S. aureus Newman
S. pneumoniae D39V [12] = test system: S. pneumoniae D39V
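Wherever Bliss interaction score (quartile over a dose matrix) is given: first quartile when negative (synergy) and third quartile when positive (antagonism).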

CO/N=C(\C(=O)N[C@@H]1C(=O)N2C(C(=O)O)=C(COC(C)=O)CS[C@H]12)c1csc(N)n1 [Cefotaxime] + C[C@@H]1O[C@@H]1P(=O)(O)O [Fosfomycin]
fitness, one replicate
Conditions	partner 0.781 µg/mL	partner 1.562 µg/mL	partner 3.124 µg/mL	partner 6.248 µg/mL
B. subtilis 168 [1], first compound 0.00775 µg/mL	–	0.573	0.446	0.274
B. subtilis 168 [1], first compound 0.0155 µg/mL	–	0.443	0.362	0.198
B. subtilis 168 [1], first compound 0.031 µg/mL	–	0.319	0.225	0.156
B. subtilis 168 [1], first compound 0.0625 µg/mL	–	0.454	0.413	0.34
B. subtilis 168 [1], first compound 0.125 µg/mL	–	0.472	0.389	0.238
B. subtilis 168 [1], first compound 0.25 µg/mL	–	0.367	0.337	0.186
S. aureus DSM 20231 [2], first compound 0.039 µg/mL	0.718	0.673	0.504	–
S. aureus Newman [3], first compound 0.039 µg/mL	0.58	0.511	0.202	–
S. aureus Newman [3], first compound 0.312 µg/mL	0.341	0.205	0.117	–

Conditions	fitness
B. subtilis 168 [1], first compound 0.5 µg/mL, partner 1.562 µg/mL	0.244
B. subtilis 168 [1], first compound 0.5 µg/mL, partner 3.124 µg/mL	0.194
B. subtilis 168 [1], first compound 0.5 µg/mL, partner 6.248 µg/mL	0.16
B. subtilis 168 [1], first compound 1 µg/mL, partner 1.562 µg/mL	0.134
B. subtilis 168 [1], first compound 1 µg/mL, partner 3.124 µg/mL	0.102
B. subtilis 168 [1], first compound 1 µg/mL, partner 6.248 µg/mL	0.0644
B. subtilis 168 [1], first compound 2 µg/mL, partner 1.562 µg/mL	0.13
B. subtilis 168 [1], first compound 2 µg/mL, partner 3.124 µg/mL	0.117
B. subtilis 168 [1], first compound 2 µg/mL, partner 6.248 µg/mL	0.054
S. aureus DSM 20231 [2], first compound 0.078 µg/mL, partner 0.781 µg/mL	0.65
S. aureus DSM 20231 [2], first compound 0.078 µg/mL, partner 1.562 µg/mL	0.608
S. aureus DSM 20231 [2], first compound 0.078 µg/mL, partner 3.124 µg/mL	0.559
S. aureus DSM 20231 [2], first compound 0.156 µg/mL, partner 0.781 µg/mL	0.624
S. aureus DSM 20231 [2], first compound 0.156 µg/mL, partner 1.562 µg/mL	0.62
S. aureus DSM 20231 [2], first compound 0.156 µg/mL, partner 3.124 µg/mL	0.532
S. aureus DSM 20231 [2], first compound 0.312 µg/mL, partner 0.781 µg/mL	0.683
S. aureus DSM 20231 [2], first compound 0.312 µg/mL, partner 1.562 µg/mL	0.623
S. aureus DSM 20231 [2], first compound 0.312 µg/mL, partner 3.124 µg/mL	0.518
S. aureus Newman [3], first compound 0.078 µg/mL, partner 0.781 µg/mL	0.628
S. aureus Newman [3], first compound 0.078 µg/mL, partner 1.562 µg/mL	0.536
S. aureus Newman [3], first compound 0.078 µg/mL, partner 3.124 µg/mL	0.21
S. aureus Newman [3], first compound 0.156 µg/mL, partner 0.781 µg/mL	0.536
S. aureus Newman [3], first compound 0.156 µg/mL, partner 1.562 µg/mL	0.497
S. aureus Newman [3], first compound 0.156 µg/mL, partner 3.124 µg/mL	0.206
S. aureus Newman [3], first compound 0.625 µg/mL, partner 0.781 µg/mL	0.17
S. aureus Newman [3], first compound 0.625 µg/mL, partner 1.562 µg/mL	0.185
S. aureus Newman [3], first compound 0.625 µg/mL, partner 3.124 µg/mL	0.084
S. aureus Newman [3], first compound 1.25 µg/mL, partner 0.781 µg/mL	0.0664
S. aureus Newman [3], first compound 1.25 µg/mL, partner 1.562 µg/mL	0.033
S. aureus Newman [3], first compound 1.25 µg/mL, partner 3.124 µg/mL	0.0169
S. aureus Newman [3], first compound 2.5 µg/mL, partner 0.781 µg/mL	0.0252
S. aureus Newman [3], first compound 2.5 µg/mL, partner 1.562 µg/mL	0.0136
S. aureus Newman [3], first compound 2.5 µg/mL, partner 3.124 µg/mL	0.0374
S. pneumoniae D39V [4], first compound 0.0018 µg/mL, partner 1.25 µg/mL	0.958
S. pneumoniae D39V [4], first compound 0.0018 µg/mL, partner 2.5 µg/mL	0.959
S. pneumoniae D39V [4], first compound 0.0018 µg/mL, partner 5 µg/mL	0.761
S. pneumoniae D39V [4], first compound 0.0035 µg/mL, partner 1.25 µg/mL	0.962
S. pneumoniae D39V [4], first compound 0.0035 µg/mL, partner 2.5 µg/mL	0.943
S. pneumoniae D39V [4], first compound 0.0035 µg/mL, partner 5 µg/mL	0.736
S. pneumoniae D39V [4], first compound 0.007 µg/mL, partner 1.25 µg/mL	0.897
S. pneumoniae D39V [4], first compound 0.007 µg/mL, partner 2.5 µg/mL	0.778
S. pneumoniae D39V [4], first compound 0.007 µg/mL, partner 5 µg/mL	0.533

Conditions	Bliss interaction score
B. subtilis 168 [5]	0.0459
S. aureus DSM 20231 [6]	0.143
S. aureus Newman [7]	0.113
S. pneumoniae D39V [8]	-0.0644

C[C@@H]1O[C@@H]1P(=O)(O)O [Fosfomycin]
Conditions	MIC [µg/mL]
B. subtilis 168 [9]	12.5 (≈ 90.5 µM)
S. aureus DSM 20231 [10]	3.5 (≈ 25.4 µM)
S. aureus Newman [11]	3.5 (≈ 25.4 µM)
S. pneumoniae D39V [12]	6.25 (≈ 45.3 µM)

Conditions	fitness
B. subtilis 168 [1], 1.562 µg/mL	0.712
B. subtilis 168 [1], 3.124 µg/mL	0.594
B. subtilis 168 [1], 6.248 µg/mL	0.422
S. aureus DSM 20231 [2], 0.781 µg/mL	0.875
S. aureus DSM 20231 [2], 1.562 µg/mL	0.693
S. aureus DSM 20231 [2], 3.124 µg/mL	0.535
S. aureus Newman [3], 0.781 µg/mL	0.686
S. aureus Newman [3], 1.562 µg/mL	0.485
S. aureus Newman [3], 3.124 µg/mL	0.123
S. pneumoniae D39V [4], 1.25 µg/mL	0.966
S. pneumoniae D39V [4], 2.5 µg/mL	0.895
S. pneumoniae D39V [4], 5 µg/mL	0.716
